The values below come from US7538131B2, “2-{-3-′2-(phenyl)-oxazol-4-ylmethoxymethyl-cyclohexylmethoxy}-propionic acid derivatives useful as peroxisome proliferator-activated receptor (PPAR) ligands for the treatment of hyperlipidemia and diabetes” (Sanofi-Aventis Deutschland GmbH, priority 2004, dated 2009).

The target in one assay is T1, human PPARgamma (Homo sapiens, UniProt P37231).
T1 construct: human PPARgamma receptor (amino acids 1152-Y475); expressed in transfected cells; host or cells: HEK cells (transiently transfected, pcDNA3-GAL4-humanPPARgammaLBD)
T1 sequence (P37231 182-477 isoform P37231-2 limits assumed): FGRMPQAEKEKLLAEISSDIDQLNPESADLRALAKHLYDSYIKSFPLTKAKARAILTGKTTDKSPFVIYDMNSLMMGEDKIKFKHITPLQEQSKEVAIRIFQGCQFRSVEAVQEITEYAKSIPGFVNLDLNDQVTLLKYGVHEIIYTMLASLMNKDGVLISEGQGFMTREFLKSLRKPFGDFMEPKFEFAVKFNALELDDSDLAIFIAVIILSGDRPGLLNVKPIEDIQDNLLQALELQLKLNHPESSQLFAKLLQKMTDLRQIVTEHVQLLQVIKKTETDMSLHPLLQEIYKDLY
Nature of the assay: Cellular PPARgamma assay (transiently transfected HEK cells, luciferase reporter). The note with it: GAL4-humanPPARgammaLBD, firefly/Renilla luciferase ratio, 48 h. Type of assay: cell-based. The text has this: 4) Determination of EC50 Values of PPAR Agonists in the Cellular PPARgamma Assay
A transient transfection system is employed to determine the cellular PPARgamma activity of PPAR agonists. It is based on the use of a luciferase reporter plasmid (pGL3basic-5xGAL4-TK) and of a PPARgamma expression plasmid (pcDNA3-GAL4-humanPPARgammaLBD). Both plasmids are transiently transfected into human embryonic kidney cells (HEK cells). There is then expression in these cells of the fusion protein GAL4-humanPPARgammaLBD which binds to the GAL4 binding sites of the reporter plasmid. In the presence of a PPARgamma-active ligand, the activated fusion protein GAL4-humanPPARgammaLBD induces expression of the luciferase reporter gene, which can be detected in the form of a chemiluminescence signal after addition of a luciferase substrate. As a difference from the stably transfected PPARalpha reporter cell line, in the cellular PPARgamma assay the two components (luciferase reporter plasmid and PPARgamma expression plasmid) are transiently transfected into HEK cells because stable and permanent expression of the PPARgamma fusion protein is cytotoxic.
The luciferase reporter plasmid pGL3basic-5xGAL4-TK is based on the vector pGL3basic from Promega. The reporter plasmid is prepared by cloning five binding sites of the yeast transcription factor GAL4 (each binding site with the sequence 5′-CTCGGAGGACAGTACTCCG-3′), together with a 160 bp-long thymidine kinase promoter section (Genbank Accession #AF027128) 5′-upstream into pGL3basic. 3′-downstream of the thymidine kinase promoter is the complete luciferase gene from Photinus pyralis (Genbank Accession # Ml 5077), which is already a constituent of the plasmid pGL3basic used. The cloning and sequencing of the reporter plasmid pGL3basic-5xGAL4-TK took place in analogy to the description in Sambrook J. et. al. (Molecular cloning, Cold Spring Harbor Laboratory Press, 1989).
The PPARgamma expression plasmid pcDNA3-GAL4-humanPPARgammaLBD was prepared by first cloning the cDNA coding for amino acids 1-147 of the yeast transcription factor GAL4 (Genbank Accession #P04386) into the plasmid pcDNA3 (from Invitrogen) 3′-downstream of the cytomegalovirus promoter. Subsequently, the cDNA of the ligand-binding domain (LBD) of the human PPARgamma receptor (amino acids […]; Accession #g1480099) 3′-downstream of the GAL4 DNA binding domain was cloned. Cloning and sequencing of the PPARgamma expression plasmid pcDNA3-GAL4-humanPPARgammaLBD again took place in analogy to the description in Sambrook J. et. al. (Molecular cloning, Cold Spring Harbor Laboratory Press, 1989). Besides the luciferase reporter plasmid pGL3basic-5xGAL4-TK and the PPARgamma expression plasmid pcDNA3-GAL4-humanPPARgammaLBD, also used for the cellular PPARgamma assay are the reference plasmid pRL-CMV (from Promega) and the plasmid pBluescript SK(+) from Stratagene. All four plasmids were prepared using a plasmid preparation kit from Qiagen, which ensured a plasmid quality with a minimal endotoxin content, before transfection into HEK cells.
The activity of PPARgamma agonists is determined in a 4-day assay which is described below. Before the transfection, HEK cells were cultivated in DMEM medium (#41965-039, Invitrogen) which was mixed with the following additions: 10% FCS (#16000-044, Invitrogen),1% penicillin-streptomycin solution (#15140-122, Invitrogen) and 2 mM L-glutamine (#25030-024, Invitrogen).
Solution A, a transfection mixture which contains all four plasmids previously described in addition to DMEM medium, was prepared. […]

The target in another assay is T2, human PPARalpha (Homo sapiens, UniProt Q07869).
T2 construct: human PPARalpha receptor (amino acids S167-Y468); expressed in transfected cells; host or cells: HEK cells (stably transfected, pcDNA3, CMV promoter)
T2 sequence (Q07869 167-468): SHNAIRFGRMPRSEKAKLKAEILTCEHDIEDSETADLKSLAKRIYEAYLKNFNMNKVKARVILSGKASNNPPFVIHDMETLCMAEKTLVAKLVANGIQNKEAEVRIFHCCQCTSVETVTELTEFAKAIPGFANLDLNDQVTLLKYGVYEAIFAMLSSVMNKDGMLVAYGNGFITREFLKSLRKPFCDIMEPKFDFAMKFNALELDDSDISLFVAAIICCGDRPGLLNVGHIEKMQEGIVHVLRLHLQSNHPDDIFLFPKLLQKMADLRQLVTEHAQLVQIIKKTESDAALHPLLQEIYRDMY
Nature of the assay: Cellular PPARalpha assay (stably transfected HEK luciferase reporter cell line). Type of assay: cell-based. The note with it: GR-GAL4-humanPPARalpha-LBD, 24 h. Here is the method: 1) Determination of EC50 Values of PPAR Agonists in the Cellular PPARalpha Assay
The activity of the novel compounds of the present invention was tested as follows The potency of substances which bind to human PPARalpha and activate it in an agonistic manner is analyzed using a stably transfected HEK cell line (HEK=human embryo kidney) which is referred to here as PPARalpha reporter cell line. It contained two genetic elements, a luciferase reporter element (pdeltaM-GAL4-Luc-Zeo) and a PPARalpha fusion protein (GR-GAL4-humanPPARalpha-LBD) which mediates expression of the luciferase reporter element depending on a PPARalpha ligand. The stably and constitutively expressed fusion protein GR-GAL4-humanPPARalpha-LBD binds in the cell nucleus of the PPARalpha reporter cell line via the GAL4 protein portion to the GAL4 DNA binding motifs 5′-upstream of the luciferase reporter element which was stably integrated in the genome of the cell line. There is only little expression of the luciferase reporter gene without addition of a PPARalpha ligand if fatty acid-depleted fetal calf serum (cs-FCS) is used in the assay. PPARalpha ligands bind and activate the PPARalpha fusion protein and thereby bring about expression of the luciferase reporter gene. The luciferase which is formed can be detected by means of chemiluminescence via an appropriate substrate.
The PPARalpha reporter cell line was prepared in two steps. Firstly, the luciferase reporter element was constructed and stably transfected into HEK cells. For this purpose, five binding sites of the yeast transcription factor GAL4 (in each case 5′-CGGAGTACTGTCCTCCGAG-3′) were cloned in 5′-upstream of a 68 bp-long minimal MMTV promoter (Genbank Accession #V01175). The minimal MMTV promoter section contains a CCAAT box and a TATA element in order to enable efficient transcription by RNA polymerase II. The cloning and sequencing of the GAL4-MMTV construct took place in analogy to the description of Sambrook J. et. al. (Molecular Cloning, Cold Spring Harbor Laboratory Press, 1989). Which is hereby incorporated by reference herein.
The complete Photinus pyralis luciferase gene (Genbank Accession #M15077) was cloned in 3′-downstream of the GAL4-MMTV element. After sequencing, the luciferase reporter element consisting of five GAL4 binding sites, MMTV promoter and luciferase gene was subcloned into a plasmid which confers zeozin resistance in order to obtain the plasmid pdeltaM-GAL4-Luc-Zeo. This vector was transfected into HEK cells in accordance with the statements in Ausubel, F.M. et al. (Current Protocols in Molecular Biology, Vol. 1-3, John Wiley & Sons, Inc., 1995).
In a second step, the PPARalpha fusion protein (GR-GAL4-humanPPARalpha-LBD) was introduced into the stable cell clone described. For this purpose, initially the cDNA coding for the N-terminal 76 amino acids of the glucocorticoid receptor (Genbank Accession # P04150) was linked to the cDNA section coding for amino acids 1-147 of the yeast transcription factor GAL4 (Genbank Accession #P04386). The cDNA of the ligand-binding domain of the human PPARalpha receptor (amino acids S167-Y468; Genbank Accession #S74349) was cloned in at the 3′ end of this GR-GAL4 construct. The fusion construct prepared in this way (GR-GAL4-humanPPARalpha-LBD) was subcloned into the plasmid pcDNA3 (from Invitrogen) in order to enable constitutive expression therein by the cytomegalovirus promoter. This plasmid was linearized with a restriction endonuclease and stably transfected into the previously described cell clone containing the luciferase reporter element. The finished PPARalpha reporter cell line which contains a luciferase reporter element and constitutively expresses the PPARalpha fusion protein (GR-GAL4-humanPPARalpha-LBD) was isolated by selection with zeozin (0.5 mg/ml) and G418 (0.5 mg/ml).
The activity of PPARalpha agonists was determined in a 3-day assay which is described below: […]
For orientation: A reporter such as luciferase makes a cellular process visible.

For orientation: EC50 means the concentration needed to bring the measured effect to its halfway point.

`COc1cccc(-c2nc(COC[C@@H]3CCC[C@H](COC(C)(C)C(=O)O)C3)c(C(C)C)o2)c1` [Example 10, 2-{1(1S,3R)-3-[5-Isopropyl-2-(3-methoxyphenyl)oxazol-4-ylmethoxymethyl]cyclohexylmethoxy}-2-methylpropionic acid]: the EC50 at human PPARgamma was 0.672 µM; on human PPARalpha, 0.381 µM.

Consider `CC(C)c1oc(-c2ccc3ccccc3c2)nc1COC[C@@H]1CCC[C@H](COC(C)(C)C(=O)O)C1` [Example 11, 2-{(1S,3R)-3-[5-Isopropyl-2-(naphtha-2-yl)oxazol-4-ylmethoxymethyl]cyclohexylmethoxy}-2-methylpropionic acid], for which the values for the EC50 at human PPARgamma and on human PPARalpha were 1.79 µM and 0.0709 µM, respectively.

Regarding `Cc1ccc(-c2nc(COC[C@H]3CCC[C@@H](COC(C)(C)C(=O)O)C3)c(C(C)C)o2)cc1C` [Example 12, 2-{(1R,3S)-3-[2-(3,4-Dimethylphenyl)-5-isopropyloxazol-4-ylmethoxymethyl]cyclohexylmethoxy}-2-methylpropionic acid], the EC50 at human PPARgamma was 0.133 µM; on human PPARalpha, 0.0055 µM.

As to `Cc1oc(-c2ccc(-c3ccccc3)cc2)nc1COC[C@H]1CCC[C@@H](COC(C)(C)C(=O)O)C1` [Example 13, 2-[(1R,3S)-3-(2-Biphenyl-4-yl-5-methyloxazol-4-ylmethoxymethyl)cyclohexylmethoxy]-2-methylpropionic acid], the EC50 at human PPARgamma worked out at 0.124 µM; on human PPARalpha it was 0.313 µM.

On to `CC(C)c1oc(-c2ccc3ccccc3c2)nc1COC[C@H]1CCC[C@@H](COC(C)(C)C(=O)O)C1` [Example 14, 2-{(1R,3S)-3-[5-Isopropyl-2-(naphth-2-yl)oxazol-4-ylmethoxymethyl]cyclohexylmethoxy}-2-methylpropionic acid], for which the EC50 at human PPARgamma was found to be 0.127 µM; at human PPARalpha, 0.0187 µM.

For `CC(C)c1oc(-c2cccc(C(F)(F)F)c2)nc1COC[C@H]1CCC[C@@H](COC(C)(C)C(=O)O)C1` [Example 16, 2-{(1R,3S)-3-[5-Isopropyl-2-(3-trifluoromethylphenyl)oxazol-4-ylmethoxymethyl]cyclohexylmethoxyl}-2-methylpropionic acid], the EC50 stood at 0.199 µM on human PPARgamma and 0.0127 µM at human PPARalpha.

As for `CC(C)Cc1ccc(-c2nc(COC[C@H]3CCC[C@@H](COC(C)(C)C(=O)O)C3)c(C(C)C)o2)cc1` [Example 17, 2-{(1R,3S)-3-[2-(4-Isobutylphenyl)-5-isopropyloxazol-4-ylmethoxymethyl]cyclohexylmethoxy}-2-methylpropionic acid], the EC50 was 0.109 µM at human PPARgamma and 0.042 µM on human PPARalpha.

As for `CC(C)c1oc(-c2ccc(C(C)(C)C)cc2)nc1COC[C@H]1CCC[C@@H](COC(C)(C)C(=O)O)C1` [Example 18, 2-{(1R,3S)-3-[2-(4-tert-butylphenyl)-5-isopropyloxazol-4-ylmethoxymethyl]cyclohexylmethoxy}-2-methylpropionic acid], the figures for the EC50 at human PPARgamma and on human PPARalpha were 0.0383 µM and 0.0205 µM, respectively.

Take `CCc1oc(-c2ccc3ccccc3c2)nc1COC[C@H]1CCC[C@@H](COC(C)(C)C(=O)O)C1` [Example 19, 2-[(1R,3S)-3-(5-Ethyl-2-naphthalen-2-yl-oxazol-4-ylmethoxymethyl)cyclohexylmethoxy]-2-methylpropionic acid]: the EC50 at human PPARgamma is 0.192 µM; on human PPARalpha, 0.0018 µM.

`Cc1oc(-c2ccc(Oc3ccccc3)cc2)nc1COC[C@H]1CCC[C@@H](COC(C)(C)C(=O)O)C1` [Example 20, 2-Methyl-2-{(1R,3S)-3-[5-methyl-2-(4-phenoxyphenyl)oxazol-4-ylmethoxymethyl]cyclohexylmethoxy}propionic acid]: the EC50 at human PPARgamma is 0.0714 µM; at human PPARalpha, 0.149 µM.

`CCc1oc(-c2ccc(C)c(C)c2)nc1COC[C@H]1CCC[C@@H](COC(C)(C)C(=O)O)C1` [Example 21, 2-{(1R,3S)-3-[2-(3,4-Dimethylphenyl)-5-ethyloxazol-4-ylmethoxymethyl]cyclohexylmethoxyl}-2-methylpropionic acid]: the figures for the half-maximal effective concentration (EC50) on human PPARgamma and on human PPARalpha were 0.184 µM and 0.0016 µM, respectively.
